{"source": "patent US7723023B2", "about": "“Use of intrinsic reporters of cell signaling for high content drug profiling and toxicity screening” (Mount Sinai School of Medicine, priority 2001, dated 2010)", "tested_on": "GnRHR-expressing LβT2 gonadotrope cell line", "experiment": "Focused cDNA microarray analysis (FMA) of genes regulated by GnRH in LβT2 cells", "format": "cell-based, mouse", "protocol": "Cell Culture and Sample Preparation: LβT2 cells were obtained and maintained at 37° C. in 5% CO2 in humidified air in DMEM (Mediatech) containing 10% fetal bovine serum (Gemini). For experiments. 40-50×10^6 cells were seeded in 15 cm dishes. The medium was replaced 21 hours later with DMEM containing 25 mM HEPES (Mediatech) and glutamine. […] The incubation was stopped by aspirating the incubation medium and adding 10 ml of lysis buffer (4M guanidinium thiocyanate, 25 mM sodium citrate, pH 7.0, 0.5% N-lauroyl-sarcosine, and 0.1 M 2-mercaptoethanol). Total RNA was isolated according to the method of Chomczynski and Sacchi (1987) supra. Approximately 400 μg total RNA was obtained from each plate.\nMicroarray Development: The 956 clones were selected from an NIA 15K library (Tanaka et al. (2000) Proc. Natl. Acad. Sci. USA 97:9127-9132) or purchased from Research Genetics. The gene selection was partially based on literature searches. A large number of genes known to be induced at early time points in other experimental systems were included as well as 67 putative “housekeeping” genes. Plasmids were purified using the Qiaprep 96 Turbo Miniprep kit. Following insert amplification by PCR, products were confirmed by agarose gel electrophoresis and purified with Qiaquick 96 kit (Qiagen). The product was dried, dissolved in 18 μl H2O. 50% DMSO or 3×SSC and spotted (3 hits/feature, 3 features/gene) with a GMS 417 Arrayer (Affymetrix) on CMT-GAPS coated glass slides (Corning). DNA was fixed either by incubating the slide 3.5 hours at 40° C. followed by 10 min at 100° C. or for 2 hours at 85° C. or by UV crosslinking with 90 mJ (Stratalinker, Stratagene). Arrays were stored light-protected at room temperature until use. A Cy5-labeled oligomer complementary to one of the amplification primers was designed to test printing and attachment efficiency (5′-CGTTTTACAACGTCGTGACTGGG-3′) (SEQ ID NO:1). 12% of the cDNAs on the array were confirmed by sequencing, including randomly selected clones on each 96-well plate and all genes that were identified as regulated.\nRNA Labeling and Hybridization. 20 μg of total RNA from each sample was labeled with either Cy3 or Cy5 using the Atlas indirect labeling kit (Clontech) as indicated by the manufacturer. Following array prehybridization in 6×SSC, 0.5% SDS, 1% BSA at 42° C. for 45 min, the probe was denatured and hybridized in 24 μl 50% formamid, 6×SSC, 0.5% SDS. 5×Denhardt's with 2.4 μg salmon sperm DNA, 10 μg poly dA at 42° C. (room temperature for test oligomer hybridization) for 16 hours. Following 10 min washes in 0.1×SSC, 0.1% SDS, and twice in 0.1×SSC the slide was scanned using the GMS 418 Scanner (Affymetrix).\nData Analysis. […] The median background-subtracted feature intensity was utilized for further analysis. Overall differences in the signal intensity of the two wavelengths measured on each slide (λ=532 nm and λ=635 nm) were corrected using the locally linear robust scatterplot smoother implemented in the loess function in S Plus Professional (Insightful Corporation). Predictors were generated using a symmetric distribution, span=0.75 (Venables and Ripley (1999) Modern Applied Statistics with S-Plus. Spring, N.Y. Measurement precision was estimated by determining the median coefficient of variation within slides for each gene:\n[formula] Genes were selected according to the following algorithm (i) ±fold-change of >1.3; (ii) |t|>3; (iii) signal intensity in at least one channel >1% of the median signal intensity value; (iv) criteria i-iii observed in at least 2 of 3 experiments.\nMicroarray Identification of Genes Activated by GnRH is LβT2 Cells. The response to GnRH was studied in the GnRHR-expressing LβT2 gonadotrope cell line (Turgeon et al. (1996) Mol Endocrinol. 10:439-450). Three separate experiments comparing the effects of 1 hour exposure to GnRH or vehicle were performed. […]", "key": {"[1]": {"conditions": "100 nM GnRH vs vehicle, 1 hour, LβT2 cells"}, "[2]": {"conditions": "two clones spotted in different locations on the arrays, 100 nM GnRH, 1 hour"}}, "note": "Values joined by “and” are separate entries in the source; they are usually repeats but may differ in a detail not shown here. Identical values can stand only once."}
{"substance": "gonadotropin releasing hormone [GnRH]", "values": [{"measurement": "1κB fold-change, Microarray (n = 3)", "setting": "[1]", "value": "1.7 ± 0.2", "unit": "fold"}, {"measurement": "Egr1 fold-change, Microarray (n = 3)", "setting": "[1]", "value": "12.9 ± 3.8", "unit": "fold"}, {"measurement": "Egr2 fold-change, Microarray (n = 3)", "setting": "[1]", "value": "1.5 ± 0.2", "unit": "fold"}, {"measurement": "Gem fold-change, Microarray (n = 3)", "setting": "[1]", "value": "1.7 ± 0.2", "unit": "fold"}, {"measurement": "HSP30 fold-change, Microarray (n = 3)", "setting": "[1]", "value": "1.3 ± 0.2", "unit": "fold"}, {"measurement": "Klf4 fold-change, Microarray (n = 3)", "setting": "[1]", "value": "1.7 ± 0.3", "unit": "fold"}, {"measurement": "Klf-like EST fold-change, Microarray (n = 3)", "setting": "[1]", "value": "2.3 ± 0.3", "unit": "fold"}, {"measurement": "LRG21 fold-change, Microarray (n = 3)", "setting": "[1]", "value": "31.2 ± 16.6", "unit": "fold"}, {"measurement": "MKP1/3CH134 fold-change, Microarray (n = 3)", "setting": "[1]", "value": "1.4 ± 0.1", "unit": "fold"}, {"measurement": "NMDMC fold-change, Microarray (n = 3)", "setting": "[1]", "value": "1.4 ± 0.3", "unit": "fold"}, {"measurement": "Nr4a1/nur77 fold-change, Microarray (n = 3)", "setting": "[1]", "value": "5.9 ± 1.5", "unit": "fold"}, {"measurement": "Nrf2 fold-change, Microarray (n = 3)", "setting": "[1]", "value": "1.3 ± 0.2", "unit": "fold"}, {"measurement": "PRL1 fold-change, Microarray (n = 3)", "setting": "[1]", "value": "2.0 ± 0.4", "unit": "fold"}, {"measurement": "Period1 fold-change, Microarray (n = 3)", "setting": "[1]", "value": "2.1 ± 0.1", "unit": "fold"}, {"measurement": "Rgs2 fold-change, Microarray (n = 3)", "setting": "[1]", "value": "4.0 ± 1.3", "unit": "fold"}, {"measurement": "TSC22 fold-change, Microarray (n = 3)", "setting": "[1]", "value": "3.4 ± 0.4", "unit": "fold"}, {"measurement": "c-fos fold-change, Microarray (n = 3)", "setting": "[1]", "value": "12.5 ± 4.0", "unit": "fold"}, {"measurement": "c-jun fold-change, Microarray (n = 3)", "setting": "[1]", "value": "3.8 ± 0.6", "unit": "fold"}, {"measurement": "gly96 fold-change, Microarray (n = 3)", "setting": "[1]", "value": "1.7 ± 0.6", "unit": "fold"}, {"measurement": "ler2/Pip92 fold-change, Microarray (n = 3)", "setting": "[1]", "value": "5.2 ± 1.2", "unit": "fold"}, {"measurement": "transgelin fold-change, Microarray (n = 3)", "setting": "[1]", "value": "1.4 ± 0.1", "unit": "fold"}, {"measurement": "β-actin fold-change, Microarray (n = 3)", "setting": "[1]", "value": "2.0 ± 0.5", "unit": "fold"}, {"measurement": "γ-actin fold-change, Microarray (n = 3)", "setting": "[1]", "value": "2.7 ± 0.3", "unit": "fold"}, {"measurement": "Time course of induced genes, FMA", "setting": "cells exposed to GnRH for 3 hours and 6 hours", "value": "nearly all of the induced genes return to baseline levels of expression by 3 hours"}, {"measurement": "Nrf2 degree of change on microarray, two different clones", "setting": "[2]", "value": "1.3±0.2 and 1.3±0.1"}, {"measurement": "PRL1 degree of change on microarray, two different clones", "setting": "[2]", "value": "2.0±0.4 and 1.5±0.4"}, {"measurement": "Rgs2 degree of change on microarray, two different clones", "setting": "[2]", "value": "4.0±1.3 and 2.9±1.2"}, {"measurement": "TSC22 degree of change on microarray, two different clones", "setting": "[2]", "value": "3.4±0.4 and 3.3±0.6"}]}
